Assay results reported in the NIST ThermoML archive (doi:10.1016/j.jct.2018.08.035).
“And” between values parts separate entries of the source, which are not always exact repeats. Equal values may be shown once.

Experiment: xn = mol fraction of the nth substance listed
Conditions: 100 kPa, Liquid, Vibrating tube method

CCC(O)CC [3-pentanol] + C[N+](=O)[O-]
Conditions | mass density
291.86 K, x1 = 0.325 | 974.982 kg/m3
291.86 K, x1 = 0.363 | 961.613 kg/m3
291.86 K, x1 = 0.407 | 946.991 kg/m3
291.86 K, x1 = 0.488 | 922.68 kg/m3
291.86 K, x1 = 0.546 | 907.193 kg/m3
291.86 K, x1 = 0.587 | 896.735 kg/m3
291.95 K, x1 = 0.246 | 1005.58 kg/m3
291.95 K, x1 = 0.275 | 993.548 kg/m3
291.95 K, x1 = 0.3 | 984.145 kg/m3
291.95 K, x1 = 0.325 | 974.857 kg/m3
291.95 K, x1 = 0.338 | 970.048 kg/m3
291.95 K, x1 = 0.363 | 961.485 kg/m3
291.95 K, x1 = 0.382 | 954.991 kg/m3
291.95 K, x1 = 0.407 | 946.861 kg/m3
291.95 K, x1 = 0.414 | 944.587 kg/m3
291.95 K, x1 = 0.486 | 923.287 kg/m3
291.95 K, x1 = 0.488 | 922.559 kg/m3
291.95 K, x1 = 0.573 | 900.26 kg/m3
291.95 K, x1 = 0.587 | 896.628 kg/m3
291.95 K, x1 = 0.615 | 889.805 kg/m3
291.96 K, x1 = 0.266 | 997.055 kg/m3
291.96 K, x1 = 0.546 | 907.079 kg/m3
292.05 K, x1 = 0.246 | 1005.45 kg/m3
292.05 K, x1 = 0.275 | 993.426 kg/m3
292.05 K, x1 = 0.382 | 954.866 kg/m3
292.05 K, x1 = 0.414 | 944.459 kg/m3
292.05 K, x1 = 0.486 | 923.167 kg/m3
292.05 K, x1 = 0.573 | 900.153 kg/m3
292.05 K, x1 = 0.615 | 889.701 kg/m3
292.06 K, x1 = 0.266 | 996.934 kg/m3
292.06 K, x1 = 0.3 | 984.022 kg/m3
292.06 K, x1 = 0.325 | 974.734 kg/m3
292.06 K, x1 = 0.338 | 969.925 kg/m3
292.06 K, x1 = 0.363 | 961.36 kg/m3
292.06 K, x1 = 0.407 | 946.736 kg/m3
292.06 K, x1 = 0.488 | 922.439 kg/m3
292.06 K, x1 = 0.546 | 906.966 kg/m3
292.06 K, x1 = 0.587 | 896.519 kg/m3
292.15 K, x1 = 0.246 | 1005.33 kg/m3
292.15 K, x1 = 0.325 | 974.609 kg/m3
292.15 K, x1 = 0.338 | 969.8 kg/m3
292.15 K, x1 = 0.382 | 954.742 kg/m3
292.15 K, x1 = 0.414 | 944.336 kg/m3
292.15 K, x1 = 0.486 | 923.052 kg/m3
292.15 K, x1 = 0.488 | 922.322 kg/m3
292.16 K, x1 = 0.266 | 996.81 kg/m3
292.16 K, x1 = 0.275 | 993.303 kg/m3
292.16 K, x1 = 0.3 | 983.896 kg/m3
292.16 K, x1 = 0.363 | 961.234 kg/m3
292.16 K, x1 = 0.407 | 946.608 kg/m3
292.16 K, x1 = 0.546 | 906.853 kg/m3
292.16 K, x1 = 0.573 | 900.046 kg/m3
292.16 K, x1 = 0.587 | 896.411 kg/m3
292.16 K, x1 = 0.615 | 889.595 kg/m3
292.16 K, x1 = 0.629 | 886.146 kg/m3
293.15 K, x1 = 0.266 | 995.587 kg/m3
293.15 K, x1 = 0.338 | 968.578 kg/m3
293.15 K, x1 = 0.546 | 905.746 kg/m3
293.16 K, x1 = 0.246 | 1004.11 kg/m3
293.16 K, x1 = 0.275 | 992.082 kg/m3
293.16 K, x1 = 0.3 | 982.679 kg/m3
293.16 K, x1 = 0.325 | 973.389 kg/m3
293.16 K, x1 = 0.363 | 960.014 kg/m3
293.16 K, x1 = 0.382 | 953.524 kg/m3
293.16 K, x1 = 0.407 | 945.397 kg/m3
293.16 K, x1 = 0.414 | 943.126 kg/m3
293.16 K, x1 = 0.486 | 921.889 kg/m3
293.16 K, x1 = 0.488 | 921.165 kg/m3
293.16 K, x1 = 0.573 | 898.962 kg/m3
293.16 K, x1 = 0.587 | 895.341 kg/m3
293.16 K, x1 = 0.615 | 888.546 kg/m3
293.16 K, x1 = 0.629 | 885.109 kg/m3
294.15 K, x1 = 0.246 | 1002.88 kg/m3
294.15 K, x1 = 0.266 | 994.369 kg/m3
294.15 K, x1 = 0.275 | 990.864 kg/m3
294.15 K, x1 = 0.3 | 981.466 kg/m3
294.15 K, x1 = 0.325 | 972.183 kg/m3
294.15 K, x1 = 0.338 | 967.375 kg/m3
294.15 K, x1 = 0.363 | 958.817 kg/m3
294.15 K, x1 = 0.382 | 952.329 kg/m3
294.15 K, x1 = 0.407 | 944.215 kg/m3
294.15 K, x1 = 0.414 | 941.945 kg/m3
294.15 K, x1 = 0.486 | 920.751 kg/m3
294.15 K, x1 = 0.488 | 920.031 kg/m3
294.15 K, x1 = 0.546 | 904.649 kg/m3
294.15 K, x1 = 0.573 | 897.886 kg/m3
294.15 K, x1 = 0.587 | 894.274 kg/m3
294.15 K, x1 = 0.615 | 887.502 kg/m3
294.15 K, x1 = 0.629 | 884.073 kg/m3
295.15 K, x1 = 0.246 | 1001.66 kg/m3
295.15 K, x1 = 0.266 | 993.153 kg/m3
295.15 K, x1 = 0.275 | 989.651 kg/m3
295.15 K, x1 = 0.3 | 980.26 kg/m3
295.15 K, x1 = 0.325 | 970.983 kg/m3
295.15 K, x1 = 0.338 | 966.179 kg/m3
295.15 K, x1 = 0.363 | 957.627 kg/m3
295.15 K, x1 = 0.382 | 951.15 kg/m3
295.15 K, x1 = 0.407 | 943.045 kg/m3
295.15 K, x1 = 0.414 | 940.778 kg/m3
295.15 K, x1 = 0.486 | 919.625 kg/m3
295.15 K, x1 = 0.488 | 918.905 kg/m3
295.15 K, x1 = 0.546 | 903.56 kg/m3
295.15 K, x1 = 0.587 | 893.213 kg/m3
295.15 K, x1 = 0.615 | 886.458 kg/m3
295.15 K, x1 = 0.629 | 883.039 kg/m3
295.16 K, x1 = 0.573 | 896.815 kg/m3
296.15 K, x1 = 0.275 | 988.439 kg/m3
296.15 K, x1 = 0.338 | 964.988 kg/m3
296.15 K, x1 = 0.382 | 949.976 kg/m3
296.15 K, x1 = 0.414 | 939.619 kg/m3
296.15 K, x1 = 0.615 | 885.416 kg/m3
296.16 K, x1 = 0.246 | 1000.44 kg/m3
296.16 K, x1 = 0.266 | 991.939 kg/m3
296.16 K, x1 = 0.3 | 979.058 kg/m3
296.16 K, x1 = 0.325 | 969.786 kg/m3
296.16 K, x1 = 0.363 | 956.447 kg/m3
296.16 K, x1 = 0.407 | 941.881 kg/m3
296.16 K, x1 = 0.486 | 918.503 kg/m3
296.16 K, x1 = 0.488 | 917.785 kg/m3
296.16 K, x1 = 0.546 | 902.476 kg/m3
296.16 K, x1 = 0.573 | 895.746 kg/m3
296.16 K, x1 = 0.587 | 892.153 kg/m3
296.16 K, x1 = 0.629 | 882.004 kg/m3
297.15 K, x1 = 0.246 | 999.224 kg/m3
297.15 K, x1 = 0.266 | 990.728 kg/m3
297.15 K, x1 = 0.3 | 977.857 kg/m3
297.15 K, x1 = 0.325 | 968.596 kg/m3
297.15 K, x1 = 0.338 | 963.801 kg/m3
297.15 K, x1 = 0.363 | 955.27 kg/m3
297.15 K, x1 = 0.382 | 948.809 kg/m3
297.15 K, x1 = 0.407 | 940.724 kg/m3
297.15 K, x1 = 0.414 | 938.464 kg/m3
297.15 K, x1 = 0.486 | 917.385 kg/m3
297.15 K, x1 = 0.488 | 916.67 kg/m3
297.15 K, x1 = 0.573 | 894.678 kg/m3
297.15 K, x1 = 0.615 | 884.375 kg/m3
297.15 K, x1 = 0.629 | 880.972 kg/m3
297.16 K, x1 = 0.275 | 987.23 kg/m3
297.16 K, x1 = 0.546 | 901.393 kg/m3
297.16 K, x1 = 0.587 | 891.096 kg/m3
298.15 K, x1 = 0.246 | 998.021 kg/m3
298.15 K, x1 = 0.266 | 989.517 kg/m3
298.15 K, x1 = 0.275 | 986.032 kg/m3
298.15 K, x1 = 0.3 | 976.66 kg/m3
298.15 K, x1 = 0.325 | 967.413 kg/m3
298.15 K, x1 = 0.338 | 962.62 kg/m3
298.15 K, x1 = 0.363 | 954.105 kg/m3
298.15 K, x1 = 0.382 | 947.647 kg/m3
298.15 K, x1 = 0.407 | 939.572 kg/m3
298.15 K, x1 = 0.414 | 937.32 kg/m3 and 937.319 kg/m3
298.15 K, x1 = 0.486 | 916.279 kg/m3
298.15 K, x1 = 0.488 | 915.564 kg/m3
298.15 K, x1 = 0.546 | 900.318 kg/m3
298.15 K, x1 = 0.573 | 893.615 kg/m3
298.15 K, x1 = 0.587 | 890.042 kg/m3
298.15 K, x1 = 0.615 | 883.332 kg/m3
298.15 K, x1 = 0.629 | 879.94 kg/m3
